Assay results reported in publication PMC9910428 (Proceedings of the National Academy of Sciences of the …, 2022).
Where two headings read alike, the source gives them in different places.

Columns and labels:
Sm.TRPM[W1667A]PZQ = assay: FLIPR Ca2+ reporter assay, Sm.TRPM[W1667A]PZQ mutant; format: cell-based, Schistosoma mansoni
cyclophyllidean cestodes = conditions: cited from earlier work
Fh.TRPMPZQ = Fh.TRPMPZQ with S1 threonine residue; cited from earlier work
Sm.TRPM[N1388H]PZQ = assay: FLIPR Ca2+ reporter assay, Sm.TRPM[N1388H]PZQ mutant; format: cell-based, Schistosoma mansoni
Sm.TRPM[T1518S]PZQ = assay: FLIPR Ca2+ reporter assay, Sm.TRPM[T1518S]PZQ mutant; format: cell-based, Schistosoma mansoni
[1] = test system: larval and adult diphyllobothriids; conditions: cited from earlier work
Ml.TRPM[E1495D]PZQ = Ml.TRPM[E1495D]PZQ (Macrostomum lignano, UniProt A0A267GS13); format: cell-based
Ml.TRPM[E1495D]PZQ, sequence (A0A267GS13 1-1954, stated change not applied): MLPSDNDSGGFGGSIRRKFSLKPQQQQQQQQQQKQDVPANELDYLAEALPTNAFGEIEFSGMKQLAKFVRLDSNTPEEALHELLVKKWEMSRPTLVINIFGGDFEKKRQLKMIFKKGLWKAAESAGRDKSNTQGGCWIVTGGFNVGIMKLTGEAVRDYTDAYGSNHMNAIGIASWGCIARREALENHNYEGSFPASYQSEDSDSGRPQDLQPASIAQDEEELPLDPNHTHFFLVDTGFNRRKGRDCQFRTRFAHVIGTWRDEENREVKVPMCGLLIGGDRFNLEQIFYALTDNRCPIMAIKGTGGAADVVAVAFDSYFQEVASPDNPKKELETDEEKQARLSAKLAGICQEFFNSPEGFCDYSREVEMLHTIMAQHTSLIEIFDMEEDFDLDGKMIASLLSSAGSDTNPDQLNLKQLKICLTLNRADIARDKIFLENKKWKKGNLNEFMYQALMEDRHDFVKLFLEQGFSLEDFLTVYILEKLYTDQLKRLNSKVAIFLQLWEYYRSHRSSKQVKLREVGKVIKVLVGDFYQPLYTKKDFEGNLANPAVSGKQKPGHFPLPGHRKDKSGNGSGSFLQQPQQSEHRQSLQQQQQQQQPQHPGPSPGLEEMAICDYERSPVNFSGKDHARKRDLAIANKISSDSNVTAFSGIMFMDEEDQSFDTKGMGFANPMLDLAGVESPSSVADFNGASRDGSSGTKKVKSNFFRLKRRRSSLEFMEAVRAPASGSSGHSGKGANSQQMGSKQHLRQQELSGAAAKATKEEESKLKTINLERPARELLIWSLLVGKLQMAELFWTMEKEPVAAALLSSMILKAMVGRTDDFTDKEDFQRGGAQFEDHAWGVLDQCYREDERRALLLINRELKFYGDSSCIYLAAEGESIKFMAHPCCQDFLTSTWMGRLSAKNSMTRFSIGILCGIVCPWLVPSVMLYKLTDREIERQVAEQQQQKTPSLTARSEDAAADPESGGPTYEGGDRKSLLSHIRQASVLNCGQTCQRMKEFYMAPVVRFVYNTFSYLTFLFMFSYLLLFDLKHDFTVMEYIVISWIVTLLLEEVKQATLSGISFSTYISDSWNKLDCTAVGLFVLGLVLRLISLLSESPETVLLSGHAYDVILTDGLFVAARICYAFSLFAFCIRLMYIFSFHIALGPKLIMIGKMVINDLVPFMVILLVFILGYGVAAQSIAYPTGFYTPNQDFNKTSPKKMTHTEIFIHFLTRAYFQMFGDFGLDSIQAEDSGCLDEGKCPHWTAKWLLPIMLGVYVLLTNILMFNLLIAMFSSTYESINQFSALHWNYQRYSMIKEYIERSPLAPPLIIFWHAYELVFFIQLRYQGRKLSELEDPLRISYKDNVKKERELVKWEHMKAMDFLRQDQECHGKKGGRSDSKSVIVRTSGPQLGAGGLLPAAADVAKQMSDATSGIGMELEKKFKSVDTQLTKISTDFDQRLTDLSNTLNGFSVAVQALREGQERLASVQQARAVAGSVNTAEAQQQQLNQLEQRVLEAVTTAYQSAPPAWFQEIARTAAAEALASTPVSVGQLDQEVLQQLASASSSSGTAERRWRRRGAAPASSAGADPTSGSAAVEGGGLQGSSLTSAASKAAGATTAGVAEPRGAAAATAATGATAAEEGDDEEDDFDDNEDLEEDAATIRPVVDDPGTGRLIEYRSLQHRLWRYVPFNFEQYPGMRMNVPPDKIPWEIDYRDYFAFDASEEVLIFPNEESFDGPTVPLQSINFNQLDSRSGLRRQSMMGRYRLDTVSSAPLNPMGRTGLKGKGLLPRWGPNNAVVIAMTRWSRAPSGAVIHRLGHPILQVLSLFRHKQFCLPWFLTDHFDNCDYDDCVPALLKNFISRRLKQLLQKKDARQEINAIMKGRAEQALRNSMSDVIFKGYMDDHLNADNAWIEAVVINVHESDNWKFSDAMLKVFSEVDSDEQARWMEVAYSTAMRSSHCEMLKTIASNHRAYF

D. japonica = conditions: read-out: EC50 for evoking bipolarity; cited from earlier work
Sm.TRPM[D1677Y]PZQ = assay: FLIPR Ca2+ reporter assay, Sm.TRPM[D1677Y]PZQ mutant; format: cell-based, Schistosoma mansoni
Sm.TRPM[D1677E]PZQ = assay: FLIPR Ca2+ reporter assay, Sm.TRPM[D1677E]PZQ mutant; format: cell-based, Schistosoma mansoni

For O=C(C1CCCCC1)N1CC(=O)N2CCc3ccccc3C2C1 (racemic) [(±)-PZQ, praziquantel], the “sensitivity of mutant channel compared with wild type” value (Sm.TRPM[W1667A]PZQ) is given as “increased sensitivity”, the “lowest concentration with deleterious effects in vitro” value (cyclophyllidean cestodes) is given as 320 pM and the sensitivity of channel (Fh.TRPMPZQ) is given as “insensitive”. The “sensitivity compared with the wild-type channel” value (Sm.TRPM[N1388H]PZQ) was “equivalent sensitivity”, the “sensitivity compared with the wild-type channel” value (Sm.TRPM[T1518S]PZQ) was “equivalent sensitivity” and the “concentration required to show lethality” value [1] was > 320 µM. The “increase of sensitivity versus wild-type Ml.TRPMPZQ” value (Ml.TRPM[E1495D]PZQ) was ~ 2.5 fold, the EC50 (Ml.TRPM[E1495D]PZQ; Ml.TRPM[E1495D]PZQ, Ca2+) was 21.1 ± 3.1 µM and the EC50 (D. japonica) was 35 ± 7 µM. The “sensitivity of mutant channel compared with wild type” value (Sm.TRPM[D1677Y]PZQ) was “enhanced”, the “responsiveness of mutant channel” value (Sm.TRPM[D1677E]PZQ) was “no responsiveness” and the “responsiveness of mutant channel” value (Sm.TRPM[D1677E]PZQ; listed as PZQ) was “ablated sensitivity”.
